Patent US5614370A, “Assay to identify human C5a antagonists and agonists” (Merck & Co., Inc., priority 1994, dated 1997)
Non-standard residues stand in square brackets, D forms with d. Residues, ends and D or L forms follow the SMILES beside them. No end group written: not given here. NMeF = CN[C@@H](Cc1ccccc1)C(=O)O; Cha = N[C@@H](CC1CCCCC1)C(=O)O; dCha = N[C@H](CC1CCCCC1)C(=O)O

Columns and labels:
C5a receptor [1] = biological target: T1, C5a receptor (Homo sapiens, UniProt P21730); assay: Competition binding against 125I-labeled intact C5a on human neutrophil (PMN) membranes
T1 construct: followed by a 20 μL aliquot of neutrophil membrane; endogenous in cells
T1 sequence (P21730 1-350): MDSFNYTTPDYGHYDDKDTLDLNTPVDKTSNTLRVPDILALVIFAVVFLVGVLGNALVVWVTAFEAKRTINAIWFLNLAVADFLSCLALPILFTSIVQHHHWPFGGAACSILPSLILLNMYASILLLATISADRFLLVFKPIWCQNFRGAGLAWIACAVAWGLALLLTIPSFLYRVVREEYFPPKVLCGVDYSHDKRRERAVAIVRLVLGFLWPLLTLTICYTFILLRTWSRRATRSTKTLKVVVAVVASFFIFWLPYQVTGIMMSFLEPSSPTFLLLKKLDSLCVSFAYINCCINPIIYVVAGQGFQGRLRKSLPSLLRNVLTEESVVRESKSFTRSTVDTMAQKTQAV
Excerpt: The affinity of these peptides is shown, for example, by radiolabeling intact C5a, and using the unlabeled peptide to compete the labeled C5a from C5a receptor binding sites on cellular membranes. Preparations of polymorphonuclear leukocytes (PMN's) are known to express the C5a receptor, (inhibition of the chemotactic response to C5a of this type of cell is one desirable utility for compounds identified by the instant assay). One method for preparing these membranes is described by Rollins, T. E. et al., [J. Biol. Chem. 264:520-526 (1988); see also U.S. Pat. No. 5,177,190, herein incorporated by reference as a method for isolating and purifying C5a receptor]. Briefly, this involves isolating PMN's in large quantity, disrupting these cells and obtaining the membrane fraction by centrifugation. Protein assay of the membrane preparation allows for standardization of the amount of protein added in any set of membrane binding experiments.
(§1) In FIG. 1, unlabeled C013 is used to compete with ^125 I-labeled C5a. […] In FIG. 2, the C013 is ^125 I labeled. Unlabeled C5a and unlabeled C013 are each used to compete the labeled C013 from C5a binding sites on the membranes. […] In FIG. 3a, ^125 I-C5a is competed from its binding site by unlabeled C064 and unlabeled, natural C5a (as opposed to recombinant C5a, which, however, may also obviously may be used for these purposes). […] In FIG. 3b, the inverse experiment is shown, wherein ^125 I-C064 is displaced by unlabeled C064 and unlabeled nC5a.
Hexapeptides within this class differing only at position X have similar affinities for the C5a receptor. As measured in competition binding experiments against ^125 I-C5a on human neutrophil membranes their IC50 's varied by only a factor of 3, from 25 to 80 nM (Table II):
^2 Binding experiments were carried out with human neutrophil
Binding is initiated by an addition of 20 μL of PMN membrane (typically 0.5 μg of protein) to each tube. After incubation for 90 min. at room temperature 2 ml of 0.05 M HEPES, pH 7.2, containing 0.5% BSA are added to the tube, the contents vortexed and filtered over a Whatman GF/C filter which has been soaked in 0.3% polyethylenimine. An additional 2 ml of buffer are added to the tube and used to wash the filter. All of the test samples are dissolved in DMSO, another water miscible organic solvent, or in an aqueous solvent. Non-specific background was determined by inclusion of a 100-fold excess of unlabeled C5a.
The percent inhibition is calculated according to the following formula: [formula]
Iodination of C5a was carded out with the use of chloramine T. (Rollins, T.E., and Springer, M.S. (1985) J. Biol. Chem. 260, 7157-7160). […] Concentrations of C5a were determined by amino acid analysis and by RIA (Amersham Corp.). Membranes were prepared from human PMN as described by Rollins, T.E., Sciliano, S and Springer, M.S., J. Biol Chem 264 520-526 (1988).

C5a receptor [2] = biological target: T1, C5a receptor; assay: biochemical; type: binding; conditions: for IC50: read-out: IC50 exhibited by the unlabeled ligand
Method: Initially, we attempted to conduct binding studies with ^125 I radiolabeled C009: ^125 I-Tyr Phe Lys Ala Cha Cha Leu dPhe Arg, SEQ.ID:1:, wherein Cha is cyclohexylalanine, and dPhe is the D isomer of phenylalanine. This compound is a C5a agonist displaying a Ki for C5a of 8 nM. The presence of the tyrosine allowed us to radioiodinate the peptide and establish a binding assay in which both C5a (IC50=0.1 nM) and unlabeled C009 (IC50 =10 nM) inhibit the binding of ^125 I-C009 with concentration dependencies similar to those obtained from competition experiments against ^125 I-C5a.
as §1
Peptide (5 nMoles) are added to 40μL of 0.1 M sodium phosphate, pH 7.6, in a tube, followed by 2 mCi of ^125 I in 20 μL. 10 μL of a freshly made 0.5 mg/mL solution of chloramine T is then added. After 30 seconds of incubation, 10 μL of a freshly prepared 2 mg/mL solution of Na2 S2 O3 is added, the tube is vortexed, and the sample loaded onto a Vydac C4 reverse phase column. The column is developed with a TFA/acetonitrile gradient and the iodinated peptide is isolated. The material is stored at 4° C. in the elution buffer.
To 205 μL binding buffer (50 mM HEPES, pH 7.2, containing 5 mM MgCl2, 1mM CaCl2, 0.5% BSA) in a polypropylene tube is added 30,000CPM of the ^125 I peptide in 20 μL, and 5 μL of a known dilution of the test compound or diluent, followed by a 20 μL aliquot of neutrophil membrane [equivalent to 500,000 neutrophils; Rollins, T.E. et al., J. Biol Chem. 260:7157 (1985); see also U.S. Pat. No. 5,177,190, herein incorporated by reference].
The assay mixture is incubated for 2 hours at 29° C. Binding buffer (2 mL) is then added, the tube is vortexed, and the contents filtered over a Wattmann GF/C filter soaked in 0.33% polyethylenimine. An additional aliquot of binding buffer (2 mL) is added to the tube to rinse the tube, and is then used to wash the filter. The filters are removed from the apparatus and counted. Non-specific backgrounds are determined by performing assays in the presence of either 10 nM C5a, or 1 μM unlabeled peptide. Compounds which inhibit the binding of the labeled peptide are considered to be potential active compounds.

human neutrophils [3] = assay: Degranulation, myeloperoxidase (MPO) release from human neutrophils (agonism); type: cell-based
Method: (§2) FIG. 5A and 5B. Degranulation and Ca^2+ responses to the hexapeptides. […] The ED50 's for the degranulation are: C5a, 0.5 nM; C028, 0.2 μM; C026, 1 μM. C5a, maximally, released 57% of the total cellular content of MPO. The ability of these molecules to elicite a Ca^2+ -flux is shown in B. The concentrations used for C028 (10 μM), C026 (10 μM), C061 (100 μM) are those which produce a maximal flux. A saturating concentration was also used for C5a (1 nM).
(§3) This assay was performed on human neutrophils as previously reported and it is a measure of C5a or peptide induced exocytosis (Rollins, T. E. and Springer, M. S. (1985) J. Biol. Chem. 260, 7157-7160).
The functional properties of two of the peptides, C026, and C028, were originally described by Mollison et. al (Mollison, K. W., Krause, R. A., Fey, T. A., Miller, L., Wiedeman, P. e., Kawai, M., Lane, B., Luly, J. R. and Carter, G. W. (1992) FASEB J. 6, A2058). […] We have reinvestigated the degranulating activities of these peptides as measured by the release of myeloperoxidase (MPO) from human neutrophils. […] The EC50 /IC50 (degranulation/binding) for C028 is 8, the same as that measured for C5a (Table II, FIG. 5A). […] However, the difference in activity between C026 and C028 is significant and reproducible. Since the structural difference between the two is the substitution of an aromatic for an aliphatic residue (Phe for Cha) we chose to make additional changes at position 5 which further increased aromaticity. […] To further examine whether the differences in activity between the peptides reflects the increased aromaticity we synthesized a molecule with Leu, an aliphatic amino acid, at position 5 (C068, Table II).

human neutrophils [4] = assay: Ligand induced Ca2+ flux (Indo-1 fluorescence); type: cell-based; conditions: maximal effects, peptide 10-100 μM vs 1 nM C5a, FIG. 5B
Method: as §2
(§4) Ligand induced Ca^2+ fluxes were measured by following the change in Indo-1 induced fluorescence on a FACS analyzer as previously described (Van Riper, G., Siciliano, S. J., Fischer, P. A., Meurer, R., Springer, M. S. and Rosen, H. (1993) J. Exp. Med. 177, 851-856.).
FIG. 5B compares the maximal effects of each peptide (10-100 μM) with the response induced by C5a (1 nM).

C5a receptor [5] = biological target: T1, C5a receptor; assay: Agonist activity over all C5a induced responses (chemotaxis, MPO release, calcium flux, GTPase activity, GTPγ-S binding); type: cell-based; conditions: C089 tested up to and including 100 μM
Method: The EC50 measures the concentration of compound at which a 50% maximal stimulation of a given biological response induced by C5a is achieved (chemotaxis, MPO release, calcium flux, GTPase activity or GTPγ-S binding), and the IC50 is the concentration at which 50% maximal inhibition of C5a binding is achieved.
as §3, §4
This assay is a modification of the procedure described by Sims et. al. (Sims, T. J., Geissler, F. T. and Page, R. C. (1985) J. lmmunol. Meth. 78, 279-291 ). Chemotaxis was assayed in a 48 well Neuro Probe chamber (Neuro Probe, Bethesda, MD) using ^51 Cr-labelled cells. […] After preforming a gradient for 30 minutes at 37° C., 2×10^5 labelled cells were added to the upper chamber and allowed to migrate at 37° C. for one hour. The upper two polycarbonate filters were then discarded and the formed wells cut from the nitrocellulose membrane. The radioactivity present in these filters is a measure of the number of cells that migrated through both polycarbonate filters.
The method of Kupper et al. (Kupper, R. W., Dewald, B., Jakobs, K. H., Baggiolini, M. and Gierschik, P. (1992) Biochem. J. 282, 429-434) was adapted for use in microtiter plates. Neutrophil membranes were suspended in 50 mM triethanolamine-HCl, 5 mM MES, pH 7.3, containing 1 mM EDTA, 5 mM MgCl2, 143 mM NaCl, 0.16 % BSA, 1 mM ouabain, 1 mM AMP-PNP, 0.5 mM ATP, 2.5 U/mL creatine phosphokinase,. 10 mM creatine phosphate, 0.1 mM PMSF and 10 ng/mL each of leupeptin, aprotinin and chymostatin. 50 μL of membranes containing 1-5 μg protein were added to 50 μL of the same buffer containing the test agent and 0.25 μM [γ-^32 P]-GTP (2,000 cpm/pmol) in the wells of a U-shaped microtiter plate. After incubation for 15-30 rain at 29° C., 100 μL of a 10% (w/v) charcoal suspension in 100 mM H3 PO4 was added and plates were centrifuged at 2000 rpm for 5 min. 100 μL of the supernatant was transferred to an Optiplate microtiter plate and 100 μL of Microscint-40 scintillation cocktail was added. Plates were counted in a Packard TopCount microtiter plate counter.

[6] = labeled ligand 125I-C5a, read-out: IC50 exhibited by the unlabeled ligand

Molecule: CC(C)C[C@H](NC(=O)CNC(=O)[C@H](CC1CCCCC1)NC(=O)[C@H](C)NC(=O)[C@H](CCCCN)NC(=O)[C@H](Cc1ccccc1)NC(=O)[C@@H](N)Cc1ccc(O)cc1)C(=O)N[C@H](Cc1ccccc1)C(=O)N[C@@H](CCCNC(=N)N)C(=O)O [C013, Tyr Phe Lys Ala Cha Gly Leu dPhe Arg] (H-YFKA[Cha]GL[dF]R-OH)
- IC50 (C5a receptor [1]; [6]): 14 nM
- binding affinity relative to 125I-C009 (C5a receptor [2]): about 30 fold
- IC50 (C5a receptor [2]; labeled ligand 125I-C013): 1 nM

Molecule: CN[C@@H](Cc1ccccc1)C(=O)N[C@@H](CCCCN)C(=O)N1CCC[C@H]1C(=O)N[C@H](CC1CCCCC1)C(=O)N[C@@H](CC(C)C)C(=O)N[C@H](CCCNC(=N)N)C(=O)O [C068] (H-[NMeF]KP[dCha]L[dR]-OH)
- IC50 (C5a receptor [1]; Table II, human neutrophil membranes, competition against 125I-C5a, read-out: Binding IC50): 60 nM
- degranulating activity in words (human neutrophils [3]; FIG. 5A): full agonist, as measured both by maximal release and ED50 /IC50 ratio
- Ca2+ response in words (human neutrophils [4]): full agonist in this assay
- agonist activity in words, all responses (C5a receptor [5]): almost complete agonists of all of these responses

Molecule: CSCC[C@H](NC=O)C(=O)N[C@@H](CC(C)C)C(=O)N[C@@H](Cc1ccccc1)C(=O)O [fMLP, N-formyl-methionyl-leucyl-phenylalanine, reference compound]
- effect on binding of C5a COOH-terminal peptides in words (C5a receptor [2]; 125I-C009 for fMLP and IL-8, COOH-terminal peptides for L-584,020): neither

Molecule: IL-8: chemokine IL-8
- release of total cellular MPO (human neutrophils [3]; 0.4 nM C5a or 8 nM IL-8, cells without C089): 19%

Molecule: Tyr Phe Lys Pro dCha Cha dArg (YFKP[dCha][Cha][dR]) [C064, name also used for the 125I-Tyr peptide]
- IC50 (C5a receptor [1]; [6]): 8 nM
- non-specific binding of the labeled peptide (C5a receptor [2]): low non-specific binding
- IC50 (C5a receptor [2]; labeled ligand 125I-C064): 1.5 nM

Molecule: ^125 I-Tyr Phe Lys Ala Cha Cha Leu dPhe Arg [125I-C009]
- non-specific binding of the labeled peptide (C5a receptor [2]): high non-specific binding

B1: 125I-C5a: C5a iodinated with chloramine T (100-200 mCi/mg) (protein, UniProt P01031 678-751, looked up)
C5a anaphylatoxin: TLQKKIEEIAAKYKHSVVKKCCYDGACVNNDETCEQRAARISLGPRCIKAFTECCVVASQLRANISHKDMQLGR
modifications: C5a anaphylatoxin 125I label
- affinity of radioiodinated C5a in words (C5a receptor [1]; 100-200 mCi/mg): same affinity for the receptor as did the nonderivatized protein
